Among the data in ChEMBL document CHEMBL1150976, “The selectivity of protein kinase inhibitors: a further update” (Biochem J, 2007) are Activity and IC50 values, retold here.

Assay [1] addresses Mitogen-activated protein kinase 8 (Homo sapiens, UniProt P45983). The assay can be described thus: Percentage JNK1 activity remaining in the presence of 25uM inhibitor.
Assay [2] addresses Serine/threonine-protein kinase PAK 4 (Homo sapiens, UniProt O96013). The experiment in a line: Inhibition of PAK4 in the presence of 5uM ATP.
For assay [3], the target named is T1, Eukaryotic elongation factor 2 kinase (Homo sapiens) (UniProt O00418).
T1 sequence (whole entry): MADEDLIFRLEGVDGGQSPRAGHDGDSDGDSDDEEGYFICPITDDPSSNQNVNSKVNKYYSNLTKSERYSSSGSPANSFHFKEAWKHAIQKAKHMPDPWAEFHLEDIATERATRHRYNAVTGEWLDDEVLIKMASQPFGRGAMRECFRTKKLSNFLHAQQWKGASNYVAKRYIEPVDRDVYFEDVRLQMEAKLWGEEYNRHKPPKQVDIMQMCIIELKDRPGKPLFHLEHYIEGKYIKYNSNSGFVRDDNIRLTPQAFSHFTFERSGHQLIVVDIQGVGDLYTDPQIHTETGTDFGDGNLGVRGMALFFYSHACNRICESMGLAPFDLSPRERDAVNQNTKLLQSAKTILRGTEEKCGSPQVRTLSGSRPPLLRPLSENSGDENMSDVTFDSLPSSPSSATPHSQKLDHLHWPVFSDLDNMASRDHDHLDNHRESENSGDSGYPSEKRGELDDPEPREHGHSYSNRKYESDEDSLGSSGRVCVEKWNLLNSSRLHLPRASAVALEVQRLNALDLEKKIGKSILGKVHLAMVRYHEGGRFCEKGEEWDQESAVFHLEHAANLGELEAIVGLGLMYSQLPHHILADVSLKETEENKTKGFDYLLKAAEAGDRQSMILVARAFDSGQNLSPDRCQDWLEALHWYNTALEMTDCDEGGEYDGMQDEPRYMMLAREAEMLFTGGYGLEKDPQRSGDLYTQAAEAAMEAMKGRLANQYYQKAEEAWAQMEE
The experiment in a line: Percentage EF2K activity remaining in the presence of 2uM inhibitor.

The target in assay [4] is Proto-oncogene tyrosine-protein kinase LCK (Mus musculus) (UniProt P06240). The experiment in a line: Percentage Lck activity remaining in the presence of 2uM inhibitor.
Assay [5] addresses Mitogen-activated protein kinase 9 (Homo sapiens, UniProt P45984). The experiment in a line: Percentage JNK2 activity remaining in the presence of 2uM inhibitor.
In assay [6] the target is Serine/threonine-protein kinase PAK 6 (Homo sapiens) (UniProt Q9NQU5). The experiment in a line: Percentage PAK6 activity remaining in the presence of 2uM inhibitor.
In assay [7] the target is Ribosomal protein S6 kinase alpha-1 (Homo sapiens) (UniProt Q15418). The experiment in a line: Percentage RSK1 activity remaining in the presence of 2uM inhibitor. Conditions: filed as antagonist.
For assay [8], the target named is T2, Mitogen-activated protein kinase 12 (Homo sapiens) (UniProt P53778).
T2 sequence (whole entry): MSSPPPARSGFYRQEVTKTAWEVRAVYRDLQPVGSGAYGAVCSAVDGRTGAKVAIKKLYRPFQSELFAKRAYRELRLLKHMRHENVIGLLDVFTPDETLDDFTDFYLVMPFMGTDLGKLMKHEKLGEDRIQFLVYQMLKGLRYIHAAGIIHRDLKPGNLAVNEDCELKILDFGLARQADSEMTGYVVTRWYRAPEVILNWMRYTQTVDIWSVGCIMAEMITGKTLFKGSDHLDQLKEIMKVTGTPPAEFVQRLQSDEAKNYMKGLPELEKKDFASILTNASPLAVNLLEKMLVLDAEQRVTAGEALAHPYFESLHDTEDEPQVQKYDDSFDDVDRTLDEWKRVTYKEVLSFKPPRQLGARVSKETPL
The experiment in a line: Percentage p38-gamma activity remaining in the presence of 2uM inhibitor.

Assay [9] deals with Casein kinase II (Homo sapiens) (UniProt P67870+P68400+P19784). The assay can be described thus: Percentage CK2 activity remaining in the presence of 2uM inhibitor. The assay is classed as protein-complex assay.
The target of assay [10] is Rho-associated protein kinase 2 (Homo sapiens) (UniProt O75116). The assay can be described thus: Percentage ROCK2 activity remaining in the presence of 2uM inhibitor.
For assay [11], the target named is T3, Serine/threonine-protein kinase 3 (Homo sapiens) (UniProt Q13188).
T3 sequence (whole entry): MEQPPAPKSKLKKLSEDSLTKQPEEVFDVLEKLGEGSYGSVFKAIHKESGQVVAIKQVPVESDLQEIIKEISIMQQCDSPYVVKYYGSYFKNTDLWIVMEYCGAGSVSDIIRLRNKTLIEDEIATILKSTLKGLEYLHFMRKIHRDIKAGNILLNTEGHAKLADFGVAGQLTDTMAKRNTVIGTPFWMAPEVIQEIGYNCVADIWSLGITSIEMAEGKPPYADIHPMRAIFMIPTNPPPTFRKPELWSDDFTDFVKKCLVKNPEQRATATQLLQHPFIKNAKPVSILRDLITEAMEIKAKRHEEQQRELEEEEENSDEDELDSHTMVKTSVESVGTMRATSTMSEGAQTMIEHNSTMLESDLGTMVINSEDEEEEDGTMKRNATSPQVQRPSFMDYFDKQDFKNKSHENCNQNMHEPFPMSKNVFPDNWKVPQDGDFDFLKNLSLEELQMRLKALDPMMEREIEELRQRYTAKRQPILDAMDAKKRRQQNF
The assay can be described thus: Percentage MST2 activity remaining in the presence of 2uM inhibitor. Conditions: filed as antagonist.

Assay [12] deals with SRSF protein kinase 1 (Homo sapiens) (UniProt Q96SB4). The assay can be described thus: Percentage SRPK1 activity remaining in the presence of 2uM inhibitor. Conditions: filed as antagonist.
Assay [13] concerns the target Serine/threonine-protein kinase pim-1 (Homo sapiens, UniProt P11309). The experiment in a line: Percentage PIM1 activity remaining in the presence of 2uM inhibitor.
Assay [14] addresses cAMP-dependent protein kinase catalytic subunit alpha (Homo sapiens, UniProt P17612). The assay can be described thus: Percentage PKA activity remaining in the presence of 2uM inhibitor.
In assay [15] the target is Mitogen-activated protein kinase 1 (Homo sapiens) (UniProt P28482). The assay can be described thus: Percentage ERK2 activity remaining in the presence of 3uM inhibitor.
Assay [16] concerns the target RAC-beta serine/threonine-protein kinase (Homo sapiens) (UniProt P31751). The experiment in a line: Percentage PKBbeta activity remaining in the presence of 3uM inhibitor.
Assay [17] deals with SRSF protein kinase 1 (Homo sapiens) (UniProt Q96SB4). The assay can be described thus: Percentage SRPK1 activity remaining in the presence of 3uM inhibitor.
The target in assay [18] is Protein kinase C alpha type (Homo sapiens) (UniProt P17252). The assay can be described thus: Percentage PKCalpha activity remaining in the presence of 3uM inhibitor.
For assay [19], the target named is Mitogen-activated protein kinase 3 (Homo sapiens) (UniProt P27361). The assay can be described thus: Percentage ERK1 activity remaining in the presence of 3uM inhibitor.
The next assay is filed under the species Homo sapiens. The assay can be described thus: Percentage PHK activity remaining in the presence of 3uM inhibitor.
Assay [20] concerns the target Serine/threonine-protein kinase pim-3 (Homo sapiens, UniProt Q86V86). The experiment in a line: Percentage PIM3 activity remaining in the presence of 3uM inhibitor.
Assay [21] deals with Serine/threonine-protein kinase pim-2 (Homo sapiens, UniProt Q9P1W9). The experiment in a line: Percentage PIM2 activity remaining in the presence of 3uM inhibitor.
The target of assay [22] is Tyrosine-protein kinase Yes (Homo sapiens, UniProt P07947). The experiment in a line: Inhibition of Yes in the presence of 20uM ATP.

Sequence of SRSF protein kinase 1 (Homo sapiens) (Q96SB4 whole entry): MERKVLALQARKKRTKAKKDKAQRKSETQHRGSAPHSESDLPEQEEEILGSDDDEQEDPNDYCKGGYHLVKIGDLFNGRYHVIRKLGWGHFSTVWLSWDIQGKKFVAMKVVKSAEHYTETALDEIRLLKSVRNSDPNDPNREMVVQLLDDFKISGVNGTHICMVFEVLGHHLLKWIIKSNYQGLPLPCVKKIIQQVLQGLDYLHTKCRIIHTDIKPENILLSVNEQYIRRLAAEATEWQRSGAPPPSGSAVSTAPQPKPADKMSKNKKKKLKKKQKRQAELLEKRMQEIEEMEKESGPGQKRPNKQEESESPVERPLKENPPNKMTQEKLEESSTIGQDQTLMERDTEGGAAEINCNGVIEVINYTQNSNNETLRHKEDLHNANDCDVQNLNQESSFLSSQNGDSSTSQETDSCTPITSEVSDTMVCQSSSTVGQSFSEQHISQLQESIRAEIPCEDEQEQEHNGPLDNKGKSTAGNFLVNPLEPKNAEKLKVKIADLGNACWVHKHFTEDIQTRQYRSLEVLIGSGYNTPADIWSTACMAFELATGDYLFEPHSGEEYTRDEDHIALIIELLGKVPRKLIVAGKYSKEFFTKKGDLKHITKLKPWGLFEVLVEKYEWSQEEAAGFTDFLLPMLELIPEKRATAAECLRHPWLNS
Sequence of Ribosomal protein S6 kinase alpha-1 (Homo sapiens) (Q15418 whole entry): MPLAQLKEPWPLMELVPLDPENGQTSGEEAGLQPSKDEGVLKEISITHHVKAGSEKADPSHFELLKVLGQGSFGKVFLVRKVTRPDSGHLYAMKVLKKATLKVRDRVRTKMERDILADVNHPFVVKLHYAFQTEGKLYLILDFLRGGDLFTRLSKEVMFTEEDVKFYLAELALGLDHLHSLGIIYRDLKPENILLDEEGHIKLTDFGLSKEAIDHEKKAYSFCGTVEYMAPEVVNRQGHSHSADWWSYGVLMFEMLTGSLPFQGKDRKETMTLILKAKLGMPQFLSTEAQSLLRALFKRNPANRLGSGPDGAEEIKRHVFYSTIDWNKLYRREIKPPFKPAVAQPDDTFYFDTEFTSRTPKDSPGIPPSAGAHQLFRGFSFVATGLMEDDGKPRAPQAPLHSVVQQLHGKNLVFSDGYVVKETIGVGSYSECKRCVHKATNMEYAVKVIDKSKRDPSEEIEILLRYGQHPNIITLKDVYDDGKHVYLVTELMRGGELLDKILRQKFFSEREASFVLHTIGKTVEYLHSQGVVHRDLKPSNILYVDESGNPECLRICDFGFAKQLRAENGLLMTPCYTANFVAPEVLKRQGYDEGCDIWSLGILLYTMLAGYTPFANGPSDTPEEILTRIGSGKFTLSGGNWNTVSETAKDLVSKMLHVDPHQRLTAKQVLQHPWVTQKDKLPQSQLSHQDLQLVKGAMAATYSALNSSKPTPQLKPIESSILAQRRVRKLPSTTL
Sequence of Serine/threonine-protein kinase pim-2 (Q9P1W9 whole entry, looked up): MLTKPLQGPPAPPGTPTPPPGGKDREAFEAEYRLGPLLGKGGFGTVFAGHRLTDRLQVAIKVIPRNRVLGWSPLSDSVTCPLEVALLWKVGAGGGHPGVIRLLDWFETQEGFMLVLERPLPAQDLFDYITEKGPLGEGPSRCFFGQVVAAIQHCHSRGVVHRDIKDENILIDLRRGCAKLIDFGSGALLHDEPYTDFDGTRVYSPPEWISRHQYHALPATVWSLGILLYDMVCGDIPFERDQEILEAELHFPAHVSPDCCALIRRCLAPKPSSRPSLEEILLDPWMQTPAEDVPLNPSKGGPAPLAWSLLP
Sequence of Serine/threonine-protein kinase PAK 4 (O96013 whole entry): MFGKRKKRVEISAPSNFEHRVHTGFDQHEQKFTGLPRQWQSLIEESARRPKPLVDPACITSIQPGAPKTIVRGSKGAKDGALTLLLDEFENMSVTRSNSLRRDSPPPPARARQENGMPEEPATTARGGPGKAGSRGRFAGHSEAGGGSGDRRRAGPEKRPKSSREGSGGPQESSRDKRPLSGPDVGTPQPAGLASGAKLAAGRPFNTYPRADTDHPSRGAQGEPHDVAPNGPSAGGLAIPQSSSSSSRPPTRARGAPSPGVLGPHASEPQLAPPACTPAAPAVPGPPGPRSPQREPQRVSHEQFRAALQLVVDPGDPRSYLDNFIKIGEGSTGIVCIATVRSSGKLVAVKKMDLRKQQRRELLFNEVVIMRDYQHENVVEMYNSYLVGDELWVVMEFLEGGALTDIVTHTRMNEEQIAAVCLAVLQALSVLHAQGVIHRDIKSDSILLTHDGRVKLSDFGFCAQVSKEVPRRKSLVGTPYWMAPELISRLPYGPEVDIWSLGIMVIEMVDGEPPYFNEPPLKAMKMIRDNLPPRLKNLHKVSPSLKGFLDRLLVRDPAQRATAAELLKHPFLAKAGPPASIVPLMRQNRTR
Sequence of Rho-associated protein kinase 2 (Homo sapiens) (O75116 whole entry, looked up): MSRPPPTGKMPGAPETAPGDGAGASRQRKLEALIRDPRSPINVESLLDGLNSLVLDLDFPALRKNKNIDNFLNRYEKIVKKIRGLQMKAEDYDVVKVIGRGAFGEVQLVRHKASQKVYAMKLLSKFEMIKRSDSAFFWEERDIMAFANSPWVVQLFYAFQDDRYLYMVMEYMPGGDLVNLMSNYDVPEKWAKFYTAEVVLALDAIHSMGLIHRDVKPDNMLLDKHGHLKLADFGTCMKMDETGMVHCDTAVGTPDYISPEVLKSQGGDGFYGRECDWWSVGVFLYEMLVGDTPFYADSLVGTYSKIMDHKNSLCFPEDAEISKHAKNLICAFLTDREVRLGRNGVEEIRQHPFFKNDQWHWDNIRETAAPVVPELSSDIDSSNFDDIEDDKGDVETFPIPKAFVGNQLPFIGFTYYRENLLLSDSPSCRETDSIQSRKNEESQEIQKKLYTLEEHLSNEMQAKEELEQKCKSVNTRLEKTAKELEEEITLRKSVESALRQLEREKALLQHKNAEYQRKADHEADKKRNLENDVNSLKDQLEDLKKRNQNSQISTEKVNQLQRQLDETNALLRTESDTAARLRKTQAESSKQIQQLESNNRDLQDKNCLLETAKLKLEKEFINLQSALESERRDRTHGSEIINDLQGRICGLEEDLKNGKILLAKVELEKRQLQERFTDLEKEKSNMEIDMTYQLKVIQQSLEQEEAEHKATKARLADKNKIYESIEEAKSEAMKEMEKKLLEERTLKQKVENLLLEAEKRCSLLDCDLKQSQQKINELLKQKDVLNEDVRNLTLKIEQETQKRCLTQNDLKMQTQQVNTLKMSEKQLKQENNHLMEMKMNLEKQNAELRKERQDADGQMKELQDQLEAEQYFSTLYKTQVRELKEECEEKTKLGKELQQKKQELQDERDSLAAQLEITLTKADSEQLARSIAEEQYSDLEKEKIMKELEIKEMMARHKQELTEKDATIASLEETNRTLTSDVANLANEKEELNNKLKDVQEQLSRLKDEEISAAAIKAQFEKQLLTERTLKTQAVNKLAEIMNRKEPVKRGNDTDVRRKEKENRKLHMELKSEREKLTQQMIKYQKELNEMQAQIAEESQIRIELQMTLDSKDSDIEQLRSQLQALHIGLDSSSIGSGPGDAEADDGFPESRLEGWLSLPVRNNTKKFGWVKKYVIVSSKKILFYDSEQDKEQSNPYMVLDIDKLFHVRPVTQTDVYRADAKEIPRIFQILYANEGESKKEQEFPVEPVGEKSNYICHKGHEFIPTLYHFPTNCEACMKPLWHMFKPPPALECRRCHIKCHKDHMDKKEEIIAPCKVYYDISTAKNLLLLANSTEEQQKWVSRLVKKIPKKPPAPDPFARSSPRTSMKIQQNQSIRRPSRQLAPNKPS
Sequence of Mitogen-activated protein kinase 3 (Homo sapiens) (P27361 whole entry): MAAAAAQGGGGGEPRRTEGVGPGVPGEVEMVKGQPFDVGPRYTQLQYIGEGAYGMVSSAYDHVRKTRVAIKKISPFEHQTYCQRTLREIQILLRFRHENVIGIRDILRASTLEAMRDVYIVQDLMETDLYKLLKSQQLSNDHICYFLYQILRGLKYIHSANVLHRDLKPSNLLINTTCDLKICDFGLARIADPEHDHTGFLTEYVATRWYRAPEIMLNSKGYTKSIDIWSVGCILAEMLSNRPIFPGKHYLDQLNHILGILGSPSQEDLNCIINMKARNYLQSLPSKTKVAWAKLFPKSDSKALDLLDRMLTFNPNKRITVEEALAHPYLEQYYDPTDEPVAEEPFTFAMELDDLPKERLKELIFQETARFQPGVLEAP
Sequence of RAC-beta serine/threonine-protein kinase (Homo sapiens) (P31751 whole entry): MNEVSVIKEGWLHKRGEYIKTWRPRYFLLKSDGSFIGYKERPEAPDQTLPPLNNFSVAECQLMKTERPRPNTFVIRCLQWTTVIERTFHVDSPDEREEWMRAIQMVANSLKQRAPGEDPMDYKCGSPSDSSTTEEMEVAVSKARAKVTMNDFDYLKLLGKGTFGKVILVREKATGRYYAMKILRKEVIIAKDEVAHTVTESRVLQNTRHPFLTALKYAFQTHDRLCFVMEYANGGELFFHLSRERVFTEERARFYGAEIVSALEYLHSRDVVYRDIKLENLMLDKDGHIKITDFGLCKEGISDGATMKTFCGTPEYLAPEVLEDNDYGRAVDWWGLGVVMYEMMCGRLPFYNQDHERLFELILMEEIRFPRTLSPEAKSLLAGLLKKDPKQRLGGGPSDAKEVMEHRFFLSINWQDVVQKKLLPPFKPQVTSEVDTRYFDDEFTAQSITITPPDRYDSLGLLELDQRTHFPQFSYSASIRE

For the molecule `NCCNS(=O)(=O)c1ccc(Cl)c2ccncc12`, the Activity in assay [1] was 91%.

Regarding `CC(C)[C@H](CO)Nc1nc(Nc2cccc(Cl)c2)c2ncn(C(C)C)c2n1` [PURVALANOLA], the IC50 in assay [2] was 130 nM (antagonist).

As for `Cn1cc(C2=C(c3ccc(Cl)cc3Cl)C(=O)NC2=O)c2ccccc21`, the Activity in assay [3] was 98%; in [4], 77%; in [5], 85%; in [6], 90%; in assay [7], 50%; in [8], 84%. Besides, the Activity in assay [9] is 89%; in assay [10] it was 101%; in assay [11] it was 50%; in [12] it was 16%; in assay [13], 56%; in assay [14], 88%.

In the case of `Cc1ccc(-c2c(C(=O)CF)n(CCCO)c3ncnc(N)c23)cc1`, the Activity turned out to be 79% in assay [15]; 97% in assay [16]; 85% in assay [17]; 85% in assay [18]; 92% in assay [19]; 93% in the assay listed under Homo sapiens. The figures for the Activity in [20] and in assay [21] were 56% and 85%, respectively. Besides, the IC50 in assay [22] is listed as 510 nM (antagonist).

One may read the IC50 as the concentration that gives 50% inhibition.
